According to US20100272736A1, “COMBINATION ANTIBIOTIC AND ANTIBODY THERAPY FOR THE TREATMENT OF PSEUDOMONAS AERUGINOSA INFECTION” (priority 2009, published 2010):

How the values were obtained:
P. aeruginosa PA103 [1] = assay: Acute murine airway infection model: survival and body temperature (Mab166 iv, antibiotic ip); type: in vivo, mice; conditions: for survival rate over a 7 day period: antibiotic alone ip Q8H (ciprofloxacin 100 mg/kg, tobramycin 3.3 mg/kg, ceftazidime 1000 mg/kg); for survival (piperacillin experiment): piperacillin/tazobactam 1000 mg/kg ip Q8H, Mab166 300 μg iv, FIG. 7
Description: Bacterial administration and lung injury measurement in mice. Following anesthesia with avertin (250 mg kg^−1; ip), mice were inoculated with a volume of fifty μl of bacterial working stock (1.5×10^6 CFU), which was instilled into the left lung through the trachea using a 27G gavages needle. Mice were allowed to recover for 15 minutes prior to being returned to their cages. […] Rectal temperature was recorded hourly for the initial 12 hours post bacterial instillation followed by daily measurements for 7 days. Survival time was recorded for each mouse.
Antibiotics and PcrV antibody administration. […] All antibiotics were administrated intraperitoneally 1 hour after P. aeruginosa instillation. Four doses of each antibiotic were tested in mice to determine the dose needed to produce sub-optimal survival rates (40-60%) in mice infected with 1.5×10^6 PA103 CFU, which is a 3× lethal amount of bacteria.
Statistics. Kaplan-Meier plots were generated for survival analysis and ANOVA was used to compare lung injury score, bacterial CFU's and MPO activity in various treatment groups at specific time points; P 0.05 was considered significant.
(§1) The acutely infectious strain P. aeruginosa PA103 was used for this study.
Anti-PcrV antibody was intravenously injected one hour before P. aeruginosa instillation. Mice were then anesthetized with avertin (250 mg/kg), prior to instillation of 1.5×10^6 CFU PA103 into the trachea. Intraperitoneal piperacillin (1000 mg/kg, Q8H) injection commenced one hour after P. aeruginosa instillation and repeated until mice expired. Piperacillin was administered in combination with tazobactam (a pencillinase inhibitor), which is the standard practice for administration. In this example, “piperacillin” refers to piperacillin in combination with tazobactam.

PA103 = PA103 antibiotic sensitivity (MicroScan Neg Combo plates, CLSI guidelines); type: cell-based, P. aeruginosa; conditions: conventional antibiotic resistance testing, CLSI interpretation
Text: PA103 antibiotic sensitivity Dade Behring MicroScan Neg Combo plates were used to determine the antibiotic sensitivity of PA103 by conventional antibiotic sensitivity testing according to the manufacturers instructions.
as §1

P. aeruginosa PA103 [2] = assay: Bacterial enumeration (CFU) in lungs, blood and spleen; type: in vivo, mice
Description: Bacterial enumeration. Lungs were removed aseptically from the thoracic cavity, placed in 1 ml of sterile PBS and homogenized. Spleens were aseptically removed and homogenized in 1 ml of PBS and blood was drawn from right ventricle puncture. All samples were serially diluted in sterile PBS and plated on P. aeruginosa isolation agar prior to overnight incubation at 37° C. Plates with cell counts between 30 and 300 were enumerated and mean CFU ml^−1 of triplicate counts was calculated for each sample.
These samples were analyzed for bacterial CFU's as described in materials and methods.

| Structure (SMILES) | survival rate over a 7 day period (P. aeruginosa PA103 [1]) | antibiotic susceptibility of PA103 (PA103) | survival (piperacillin experiment) (P. aeruginosa PA103 [1]) | survival (piperacillin experiment) (P. aeruginosa PA103 [1]; listed as Piperacillin) | P. aeruginosa CFU's in the blood (P. aeruginosa PA103 [2]; 8 and 24 hours post infection) | total CFU's in the lungs (P. aeruginosa PA103 [2]; 8 and 24 hours post infection, compared to control mice) | bacterial CFU's in the spleen (P. aeruginosa PA103 [2]; 24 hours vs 8 hours post infection) |
| --- | --- | --- | --- | --- | --- | --- | --- |
| CC(C)(O/N=C(\C(=O)N[C@@H]1C(=O)N2C(C(=O)[O-])=C(C[n+]3ccccc3)CS[C@H]12)c1csc(N)n1)C(=O)O [ceftazidime] | 40% | susceptible |  |  |  |  |  |
| CCN1CCN(C(=O)N[C@@H](C(=O)N[C@@H]2C(=O)N3[C@@H]2SC(C)(C)[C@@H]3C(=O)O)c2ccccc2)C(=O)C1=O [piperacillin] |  |  | increased survival minimally | slight increase in animal survival |  |  |  |
| NC[C@H]1O[C@H](O[C@H]2[C@H](O)[C@@H](O[C@H]3O[C@H](CO)[C@@H](O)[C@H](N)[C@H]3O)[C@H](N)C[C@@H]2N)[C@H](N)C[C@@H]1O [tobramycin] | 60% | susceptible |  |  | significant (P=0.01, P=0.0046 respectively) increases | significantly lower | increased significantly |
